The target of this experiment is T1, Cholesteryl ester transfer protein (Homo sapiens, UniProt P11597).
T1 sequence (P11597 whole entry): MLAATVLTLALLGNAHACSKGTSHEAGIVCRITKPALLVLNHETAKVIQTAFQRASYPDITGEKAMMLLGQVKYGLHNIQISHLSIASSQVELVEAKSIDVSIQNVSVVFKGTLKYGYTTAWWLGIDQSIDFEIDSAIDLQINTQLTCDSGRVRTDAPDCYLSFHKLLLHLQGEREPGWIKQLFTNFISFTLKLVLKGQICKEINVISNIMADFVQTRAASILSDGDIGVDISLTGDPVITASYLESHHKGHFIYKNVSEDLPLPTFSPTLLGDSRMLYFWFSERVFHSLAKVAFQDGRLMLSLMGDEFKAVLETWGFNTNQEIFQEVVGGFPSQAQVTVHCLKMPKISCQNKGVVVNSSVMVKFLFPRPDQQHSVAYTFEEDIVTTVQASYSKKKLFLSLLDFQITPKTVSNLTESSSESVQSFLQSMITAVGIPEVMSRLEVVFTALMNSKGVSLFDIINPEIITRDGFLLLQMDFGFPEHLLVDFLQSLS
Kind of experiment: Cholesteryl Ester Transfer Assay: As a protein source for cholesteryl ester transfer, plasma from healthy persons was used, and as a cholesteryl ester receptor, LDL from healthy persons was used. Samples were treated with each test compound to final concentrations of 16, 80, 400, 2000 and 10000 nM and analyzed in duplicate. For the cholesteryl ester transfer test, 20 μl of plasma, 50 μl of LDL (0.25 mg/ml) and 50 μl of rHDL-agarose (0.25 mg/ml) were added, and a solution containing a test compound was added, followed by reaction at 37° C. Then, centrifugation was performed at 4° C. for 3 minutes to stop the reaction, and 150 μl of the supernatant was taken and transferred to a 96-well plate for radioactivity measurement, and the radioactivity of the plate was measured with a beta-ray detector. Type of experiment: cell-free.

The values below come from ChEMBL document CHEMBL3886997, “Biaryl- or heterocyclic biaryl-substituted cyclohexene derivative compounds as CETP inhibitors” (2016).

Usually IC50 stands for the point on the concentration scale where inhibition reaches its midpoint. Regarding `COc1cc(C(F)(F)F)c(-c2ccc(C(=O)O)cc2F)cc1C1=C(CN2C(=O)O[C@H](c3cc(C(F)(F)F)cc(C(F)(F)F)c3)[C@@H]2C)CC(C)(C)CC1`, the IC50 is 9.1 nM. The figure for `COc1cc(C(F)(F)F)c(-c2ccc(C(=O)O)cc2Cl)cc1C1=C(CN2C(=O)O[C@H](c3cc(C(F)(F)F)cc(C(F)(F)F)c3)[C@@H]2C)CC(C)(C)CC1` is 12.3 nM.
